# Source: ChEMBL document CHEMBL4828722, “The synthesis and bioactivity of pyrrolo[2,3-d]pyrimidine derivatives as tyrosine kinase inhibitors for NSCLC cells with EGFR mutations” (Eur J Med Chem, 2021)
# pIC50: −log10 of the molar value. The source made the active and inactive calls. The calls are words filed in the database; no cut-off is given here.
# Experiments:
# NCI-H1975 [1] = assay: Induction of apoptosis in human NCI-H1975 cells harboring EGFR L858R/T790M mutant assessed as total apoptotic cells at 0.5 uM measured after 18 hrs by Annexin V-FITC/PI staining based flow cytometry analysis (Rvb= 9.2%); assay type: functional
# [2] = biological target: Signal transducer and activator of transcription 3 (Homo sapiens) (UniProt P40763); assay: Inhibition of STAT3 phosphorylation at Ser727 residue in human HBE cells at 5 uM incubated for 2 hrs by immunoblotting analysis; assay type: cell-based
# A549 [3] = assay: Induction of cell cycle arrest in human A549 cells harboring wild type EGFR assessed as accumulation of cells in G2/M phase at 0.5 uM measured after 18 hrs by PI/RNaseA staining based flow cytometry analysis (Rvb= 8.47%); assay type: functional
# A549 [4] = assay: Induction of cell cycle arrest in human A549 cells harboring wild type EGFR assessed as accumulation of cells in G0/G1 phase at 1 uM measured after 18 hrs by PI/RNaseA staining based flow cytometry analysis (Rvb= 58.27%); assay type: functional
# A549 [5] = assay: Induction of cell cycle arrest in human A549 cells harboring wild type EGFR assessed as accumulation of cells in G0/G1 phase at 5 uM measured after 18 hrs by PI/RNaseA staining based flow cytometry analysis (Rvb= 58.27%); assay type: functional
# HCC827 [6] = assay: Induction of apoptosis in human HCC827 cells harboring EGFR del E746-A750 mutant assessed as early apoptotic cells at 0.5 uM measured after 18 hrs by Annexin V-FITC/PI staining based flow cytometry analysis (Rvb= 9.6%); assay type: functional
# A549 [7] = assay: Cytotoxicity against human A549 cells harboring wild type EGFR assessed as reduction in cell viability measured after 48 hrs by CCK8 assay; assay type: functional, cell-based; conditions: A549, 48 h
# A549 [8] = assay: Induction of cell cycle arrest in human A549 cells harboring wild type EGFR assessed as accumulation of cells in G2/M phase at 5 uM measured after 18 hrs by PI/RNaseA staining based flow cytometry analysis (Rvb= 8.47%); assay type: functional
# NCI-H1975 [9] = assay: Induction of apoptosis in human NCI-H1975 cells harboring EGFR L858R/T790M mutant assessed as early apoptotic cells at 5 uM measured after 18 hrs by Annexin V-FITC/PI staining based flow cytometry analysis (Rvb= […]); assay type: functional
# HCC827 [10] = assay: Induction of apoptosis in human HCC827 cells harboring EGFR del E746-A750 mutant assessed as live cells at 5 uM measured after 18 hrs by Annexin V-FITC/PI staining based flow cytometry analysis (Rvb= 87.5%); assay type: functional
# HCC827 [11] = assay: Induction of apoptosis in human HCC827 cells harboring EGFR del E746-A750 mutant assessed as dead cells at 5 uM measured after 18 hrs by Annexin V-FITC/PI staining based flow cytometry analysis (Rvb= […]); assay type: functional
# NCI-H1975 [12] = assay: Induction of cell cycle arrest in human NCI-H1975 cells harboring EGFR L858R/T790M mutant assessed as accumulation of cells in S phase at 1 uM measured after 18 hrs by PI/RNaseA staining based flow cytometry analysis (Rvb= 39.78%); assay type: functional
# HCC827 [13] = assay: Induction of cell cycle arrest in human HCC827 cells harboring EGFR del E746-A750 mutant assessed as accumulation of cells in G0/G1 phase at 1 uM measured after 18 hrs by PI/RNaseA staining based flow cytometry analysis (Rvb= 49.60%); assay type: functional
# HCC827 [14] = assay: Induction of cell cycle arrest in human HCC827 cells harboring EGFR del E746-A750 mutant assessed as accumulation of cells in G0/G1 phase at 0.5 uM measured after 18 hrs by PI/RNaseA staining based flow cytometry analysis (Rvb= 49.60%); assay type: functional
# HCC827 [15] = assay: Induction of apoptosis in human HCC827 cells harboring EGFR del E746-A750 mutant assessed as early apoptotic cells at 5 uM measured after 18 hrs by Annexin V-FITC/PI staining based flow cytometry analysis (Rvb= 9.6%); assay type: functional
# HCC827 [16] = assay: Induction of cell cycle arrest in human HCC827 cells harboring EGFR del E746-A750 mutant assessed as accumulation of cells in S phase at 1 uM measured after 18 hrs by PI/RNaseA staining based flow cytometry analysis (Rvb= 33.62%); assay type: functional
# A549 [17] = assay: Induction of cell cycle arrest in human A549 cells harboring wild type EGFR assessed as accumulation of cells in G2/M phase at 1 uM measured after 18 hrs by PI/RNaseA staining based flow cytometry analysis (Rvb= 8.47%); assay type: functional
# A549 [18] = assay: Induction of cell cycle arrest in human A549 cells harboring wild type EGFR assessed as accumulation of cells in S phase at 1 uM measured after 18 hrs by PI/RNaseA staining based flow cytometry analysis (Rvb= 33.26%); assay type: functional
# HCC827 [19] = assay: Induction of apoptosis in human HCC827 cells harboring EGFR del E746-A750 mutant assessed as late apoptotic cells at 0.5 uM measured after 18 hrs by Annexin V-FITC/PI staining based flow cytometry analysis (Rvb= 1.2%); assay type: functional
# HCC827 [20] = assay: Induction of cell cycle arrest in human HCC827 cells harboring EGFR del E746-A750 mutant assessed as accumulation of cells in G2/M phase at 0.5 uM measured after 18 hrs by PI/RNaseA staining based flow cytometry analysis (Rvb= 16.78%); assay type: functional
# HCC827 [21] = assay: Induction of cell cycle arrest in human HCC827 cells harboring EGFR del E746-A750 mutant assessed as accumulation of cells in G0/G1 phase at 5 uM measured after 18 hrs by PI/RNaseA staining based flow cytometry analysis (Rvb= 49.60%); assay type: functional
# HCC827 [22] = assay: Induction of apoptosis in human HCC827 cells harboring EGFR del E746-A750 mutant assessed as live cells at 0.5 uM measured after 18 hrs by Annexin V-FITC/PI staining based flow cytometry analysis (Rvb= 87.5%); assay type: functional
# NCI-H1975 [23] = assay: Induction of apoptosis in human NCI-H1975 cells harboring EGFR L858R/T790M mutant assessed as dead cells at 0.5 uM measured after 18 hrs by Annexin V-FITC/PI staining based flow cytometry analysis (Rvb= […]); assay type: functional
# A549 [24] = assay: Induction of cell cycle arrest in human A549 cells harboring wild type EGFR assessed as accumulation of cells in S phase at 0.5 uM measured after 18 hrs by PI/RNaseA staining based flow cytometry analysis (Rvb= 33.26%); assay type: functional
# NCI-H1975 [25] = assay: Induction of apoptosis in human NCI-H1975 cells harboring EGFR L858R/T790M mutant assessed as early apoptotic cells at 0.5 uM measured after 18 hrs by Annexin V-FITC/PI staining based flow cytometry analysis (Rvb= […]); assay type: functional
# HCC827 [26] = assay: Induction of apoptosis in human HCC827 cells harboring EGFR del E746-A750 mutant assessed as total apoptotic cells at 5 uM measured after 18 hrs by Annexin V-FITC/PI staining based flow cytometry analysis (Rvb= 10.8%); assay type: functional
# HCC827 [27] = assay: Inhibition of AKT phosphorylation in human HCC827 cells at 0.1 to 5 uM incubated for 2 hrs by immunoblotting analysis; assay type: cell-based; conditions: dose 0.1-5 µM
# Chain of Signal transducer and activator of transcription 3 (Homo sapiens) (P40763 whole entry): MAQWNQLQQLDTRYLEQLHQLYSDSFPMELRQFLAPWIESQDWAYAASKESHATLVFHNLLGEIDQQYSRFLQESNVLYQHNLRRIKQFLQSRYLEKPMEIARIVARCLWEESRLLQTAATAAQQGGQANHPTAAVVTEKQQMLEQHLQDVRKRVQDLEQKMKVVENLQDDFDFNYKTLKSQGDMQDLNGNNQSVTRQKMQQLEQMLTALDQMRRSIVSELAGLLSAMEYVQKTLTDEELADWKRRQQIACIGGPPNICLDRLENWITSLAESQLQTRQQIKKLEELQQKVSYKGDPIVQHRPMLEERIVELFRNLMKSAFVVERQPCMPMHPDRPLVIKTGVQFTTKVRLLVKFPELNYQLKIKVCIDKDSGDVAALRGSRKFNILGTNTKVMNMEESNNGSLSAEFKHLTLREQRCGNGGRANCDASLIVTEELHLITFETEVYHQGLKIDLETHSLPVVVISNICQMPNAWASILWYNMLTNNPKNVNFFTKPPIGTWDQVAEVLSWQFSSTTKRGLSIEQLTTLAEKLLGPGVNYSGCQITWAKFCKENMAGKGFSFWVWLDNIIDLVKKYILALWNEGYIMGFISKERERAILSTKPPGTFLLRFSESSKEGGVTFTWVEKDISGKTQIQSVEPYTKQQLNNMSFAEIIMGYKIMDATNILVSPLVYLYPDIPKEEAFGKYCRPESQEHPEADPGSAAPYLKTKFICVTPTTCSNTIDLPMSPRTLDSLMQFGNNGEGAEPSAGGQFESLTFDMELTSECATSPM
SMILES,Activity (NCI-H1975 [1]) [%],inhibition [2],Activity (A549 [3]) [%],Activity (A549 [4]) [%],Activity (A549 [5]) [%],Activity (HCC827 [6]) [%],pIC50 (A549 [7]),Activity (A549 [8]) [%],Activity (NCI-H1975 [9]) [%],Activity (HCC827 [10]) [%],Activity (HCC827 [11]) [%],Activity (NCI-H1975 [12]) [%],Activity (HCC827 [13]) [%],Activity (HCC827 [14]) [%],Activity (HCC827 [15]) [%],Activity (HCC827 [16]) [%],Activity (A549 [17]) [%],Activity (A549 [18]) [%],Activity (HCC827 [19]) [%],Activity (HCC827 [20]) [%],other results
C=CC(=O)Nc1cccc(Oc2nc(Nc3ccc(N4CCN(C)CC4)c([N+](=O)[O-])c3)nc3[nH]ccc23)c1,12.7,inactive,9.99,70.46,82.55,12.4,5.54,9.25,13.2,73.7,2.5,13.11,77.64,77.19,10.9,10.81,8.33,21.21,11.4,8.5,Activity (HCC827 [21]): 81.52%; Activity (HCC827 [22]): 68.2%; Activity (NCI-H1975 [23]): 2%; Activity (A549 [24]): 27.39%; Activity (NCI-H1975 [25]): 12.4%; Activity (HCC827 [26]): 30.3%; inhibition (HCC827 [27]): Active
C=CC(=O)Nc1cccc(Oc2nc(Nc3ccc(N4CCN(C)CC4)c(F)c3)nc3[nH]ccc23)c1 [ABIVERTINIB],9.5,inactive,10.15,62.04,77.6,12,5.72,7.55,11.3,63,1.5,18.87,73,75.11,13.8,15.37,8.97,28.99,18.3,9.53,Activity (HCC827 [21]): 80.34%; Activity (HCC827 [22]): 67.9%; Activity (NCI-H1975 [23]): 1.5%; Activity (A549 [24]): 30.03%; Activity (NCI-H1975 [25]): 8.3%; Activity (HCC827 [26]): 35.4%; inhibition (HCC827 [27]): Active
C=CC(=O)Nc1cccc(Oc2nc(Nc3ccc(N4CCN(C)CC4)c(N)c3)nc3[nH]ccc23)c1,16.4,inactive,10.49,64.23,85.05,11.1,5.22,8.09,15.9,74.3,2.1,19.24,72.43,74.57,12.1,20.39,9.7,26.07,12.5,10.04,Activity (HCC827 [21]): 78.12%; Activity (HCC827 [22]): 69.1%; Activity (NCI-H1975 [23]): 2.5%; Activity (A549 [24]): 29.06%; Activity (NCI-H1975 [25]): 16.1%; Activity (HCC827 [26]): 28.7%; inhibition (HCC827 [27]): Active
